Read-outs that look alike come from different tables or passages of the source.
Assays:
[1] = system: DBA1 mice; conditions: 100 mg/kg ip, bid, day 20 to day 35, in either vehicle
Protocol: Collagen-Induced Arthritis Model
In a collagen-induced arthritis model in mice, DBA1 mice were immunized with bovine type II collagen on day 0, injected (sc) with lipopolysaccharide (LPS) on day 21, and dosed (ip, bid) with a test compound at either 25, 50 or 100 mg/kg from day 20 to day 35. Body weight was monitored, and clinical disease score recorded every 2-3 days starting on day 20.
Test compound was dosed in one of two vehicles:
• 1) 10% Pharmasolve:20% PEG-400:70% of a 1% solution of Tween-80 in water; or, • 2) 30% PEG400:20% Solutol:50% of a 0.1 N solution of NaHCO3.

[2] = system: THP-1 cells; experiment: MCP-1 Induced Chemotaxis in THP-1 Cells; type: cell-based; conditions: Homo sapiens, read-out: Inhibition of MCP-1 Induced Chemotaxis IC50
[3] = system: Lewis rats; experiment: Adjuvant-Induced Arthritis Model (Therapeutic Dosing from Day 12-16); type: in vivo
Source text: Adjuvant-Induced Arthritis Model (Therapeutic Dosing from Day 12-16)

[4] = system: Lewis rats
[5] = system: THP-1 cells; conditions: Homo sapiens; for IC50: THP-1, read-out: Inhibition of MCP-1 Induced Calcium Ion Influx IC50
[6] = system: BALB/c female mice; experiment: Mouse Model of Allergic Asthma; type: in vivo; conditions: 100 mg/kg ip
Source text: Mouse Model of Allergic Asthma: An allergic asthma model in mice was used to test compounds of the invention for therapeutic effect on asthmatic response as a function of airway inflammation and hyperresponsiveness ([…], et al., J. Phar. Exp. Ther., 2000, 295: 912-926). Airway hyperresponsiveness in asthmatic patients is a cardinal feature of allergic asthma and is maintained as a result of persistent airway inflammation. Eosinophils are the prominent cells involved in airway inflammation and are found in large numbers in sputum and bronchoalveolar lavage fluids. Airway responsiveness was measured in unrestrained mice by noninvasive whole body plethysmography using a BioSystem plethysmography instrument (BUXCO, Troy, N.Y.). Each animal was individually placed in the plethysmography instrument chamber and chamber pressure was used as a measure of the difference between thoracic volume expansion or contraction and air volume removed or added to the chamber during breathing. The differential of this function with respect to time produced a pseudo flow value that was proportionate to the difference between the rate of the thoracic volume expansion and nasal air flow (Hamelmann, et al., J. Respir. Crit. Care Med., 1997, 156: 766-775). Three treatment groups of BALB/c female mice (6-8 weeks old) were tested in the 32 day study: • Group 1: vehicle control phosphate buffered saline (PBS)-sensitized and PBS-challenged mice; • Group 2: positive control ovalbumin (OVA)-sensitized and OVA-challenged mice; and, • Group 3: OVA-sensitized and OVA-challenged mice treated with Compound 13. […] • Group 1 mice were sensitized by injection (ip) with PBS; and, • Group 2 mice were OVA sensitized by injection (ip) with OVA (20 μg) dissolved in PBS adsorbed on 2.25 mg alum. […] Day 32: The three treatment groups were challenged via airway by means of methacholine inhalation and asthmatic response was measured as a function of airway hyper-responsiveness. A baseline reading over a 5 min period for each of the mice in the three treatment groups was taken in the plethysmography instrument, then the baseline readings were averaged. • Group 1 mice were nebulized with saline at increasing doses (1-30 mg/ml) over a 2 min period. • Group 2 (first subset) and Group 3 mice were nebulized with methacholine at increasing doses (1-30 mg/ml) over a 2 min period. Post-Challenge Phase A 5 min post-challenge reading for each of the mice was taken and the readings were averaged. Reduction in airway hyperresponsiveness was calculated according to the following formula: [formula] Airway inflammation was measured by eosinophil cell count in bronchoalveolar saline lavage samples (1 mL) of the mice from the three groups. […] The number of eosinophils was counted and the cell concentration adjusted to 0.1×10^6/mL.

[7] = target: T1, CCR2 (Homo sapiens, UniProt P41597)
T1 sequence (P41597 1-360 isoform P41597-2): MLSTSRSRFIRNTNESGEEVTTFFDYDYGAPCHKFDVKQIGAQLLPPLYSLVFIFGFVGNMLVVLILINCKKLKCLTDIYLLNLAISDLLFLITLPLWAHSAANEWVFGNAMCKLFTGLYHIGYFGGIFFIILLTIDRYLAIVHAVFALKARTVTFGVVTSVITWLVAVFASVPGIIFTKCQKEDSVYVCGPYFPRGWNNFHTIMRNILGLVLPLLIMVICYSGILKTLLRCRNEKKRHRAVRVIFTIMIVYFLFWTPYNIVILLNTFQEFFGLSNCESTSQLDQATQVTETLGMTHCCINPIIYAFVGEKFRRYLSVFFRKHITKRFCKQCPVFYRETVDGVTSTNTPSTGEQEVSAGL

[8] = OVA-sensitized and OVA-challenged mice
[9] = THP-1 cells, MCP-1 0.01 μg/mL, 3 hours
[10] = orally, once per day, 3 mg/kg (positive control), therapeutic study
[11] = orally, once per day, 3 mg/kg, days 10-14 (positive control)

`O=C(O)C(C1CCN(C(=O)/C=C/c2cc(F)c(F)c(F)c2)CC1)N1CCC(c2c[nH]c3ccccc23)CC1` (stereo not drawn) [Cpd 6, [4-(1H-indol-3-yl)-piperidin-1-yl]-{1-[(2E)-3-(3,4,5-trifluoro-phenyl)-acryloyl]-piperidin-4-yl}-acetic acid] was tested, and the “inhibited the development of arthritis (clinical disease score on day 35)” value [1] was “greater than 90%”, the IC50 ([2]; THP-1, 3 h) was 8 nM and the “decreased swelling in the injected paw” value ([3]; ip, bid, 100 mg/kg, days 12-16) was 40%. For the same compound, the “inhibited contralateral paw swelling” value ([3]; ip, bid, 100 mg/kg, days 12-16) was 51%, the “decrease in swelling in the injected paws” value ([4]; ip, bid, 100 mg/kg, days 0-14) was 40% and the “swelling of the contralateral paws” value ([4]; ip, bid, 100 mg/kg, days 0-14) was “insignificant swelling”. The IC50 [5] was 5 nM.

With `O=C(O)[C@H](C1CCN(C(=O)/C=C/c2cc(F)c(F)c(F)c2)CC1)N1CCC(c2c[nH]c3ccccc23)CC1` [Cpd 13, (S)-{[4-(1H-indol-3-yl)-piperidin-1-yl]}-{1-[(2E)-3-(3,4,5-trifluoro-phenyl)-acryloyl]-piperidin-4-yl}-acetic acid] the “Airway Hyperresponsiveness (whole body plethysmography reading)” value ([6]; Group 3: OVA-sensitized and OVA-challenged mice, methacholine challenge day 32, n=4) was 1147±49, the “Eosinophil Infiltration (eosinophil cell count in bronchoalveolar lavage)” value ([6]; Group 3: OVA-sensitized and OVA-challenged mice, n=3) was 0.2±0.1 ×10^5/ml and the “reduction in airway hyperresponsiveness compared to the non-treated mice” value [6, 8] was ~36%. For the same compound, the “reduction in airway inflammation compared to the non-treated mice” value [6, 8] was 75%.

For `CC(=O)OCC(C1CCN(C(=O)/C=C/c2cc(F)c(F)c(F)c2)CC1)N1CCC(c2c[nH]c3ccccc23)CC1` (stereo not drawn) [Cpd 236, acetic acid 2-[4-(1H-indol-3-yl)-piperidin-1-yl]-2-{1-[(2E)-3-(3,4,5-trifluoro-phenyl)-acryloyl]-piperidin-4-yl}-ethyl ester], the IC50 [2, 9] was 20 nM, the IC50 [7] was 20 nM and the IC50 [5] was 30 nM.

Work on `CC(=O)OCC(C1CCN(C(=O)/C=C/c2ccc(Cl)c(Cl)c2)CC1)N1CCC(c2c[nH]c3ccccc23)CC1` (stereo not drawn) [Cpd 237, acetic acid 2-{1-[(2E)-3-(3,4-dichloro-phenyl)-acryloyl]-piperidin-4-yl}-2-[4-(1H-indol-3-yl)-piperidin-1-yl]-ethyl ester] yielded an IC50 [2, 9] of 110 nM, an IC50 [7] of 215 nM and an IC50 [5] of 70 nM.

Compound `CC(=O)OCC(C1CCN(C(=O)Nc2ccc(Cl)c(Cl)c2)CC1)N1CCC(c2c[nH]c3ccccc23)CC1` (stereo not drawn) [Cpd 242, acetic acid 2-[1-(3,4-dichloro-phenylcarbamoyl)-piperidin-4-yl]-2-[4-(1H-indol-3-yl)-piperidin-1-yl]-ethyl ester] has an IC50 [2, 9] of 270 nM, an IC50 [7] of 230 nM and an IC50 [5] of 40 nM.

`O=C(/C=C/c1ccc([N+](=O)[O-])cc1)OCC(C1CCN(C(=O)/C=C/c2ccc([N+](=O)[O-])cc2)CC1)N1CCC(c2c[nH]c3ccccc23)CC1` (stereo not drawn) [Cpd 251, (2E)-3-(4-nitro-phenyl)-acrylic acid 2-[4-(1H-indol-3-yl)-piperidin-1-yl]-2-{1-[(2E)-3-(4-nitro-phenyl)-acryloyl]-piperidin-4-yl}-ethyl ester] was tested, and the IC50 [2, 9] was 170 nM, the IC50 [7] was 390 nM and the IC50 [5] was 560 nM.

Compound `O=C(C=Cc1ccc(F)c(F)c1)N1CCC(C(CO)N2CCC(c3c[nH]c4ccc(F)cc34)CC2)CC1` (stereo not drawn) [Cpd 254, (2E)-3-(3,4-difluoro-phenyl)-1-(4-{1-[4-(5-fluoro-1H-indol-3-yl)-piperidin-1-yl]-2-hydroxy-ethyl}-piperidin-1-yl)-propenone] has an IC50 [2, 9] of 20 nM, an IC50 [7] of 120 nM and an IC50 [5] of 30 nM.

In the case of `O=C(/C=C/c1cc(F)cc(F)c1)N1CCC(C(CO)N2CCC(c3c[nH]c4ccc(O)cc34)CC2)CC1` (stereo not drawn) [Cpd 259, (2E)-3-(3,5-difluoro-phenyl)-1-(4-{2-hydroxy-1-[4-(5-hydroxy-1H-indol-3-yl)-piperidin-1-yl]-ethyl}-piperidin-1-yl)-propenone], the IC50 [2, 9] is reported as 5 nM, the IC50 [7] is reported as 2 nM and the inhibition at 25 µM ([5]; THP-1, read-out: Inhibition of MCP-1 Induced Calcium Ion Influx, percent inhibition) is reported as 88%.

In the case of `COc1ccc2c(c1)c(CC(=O)O)c(C)n2C(=O)c1ccc(Cl)cc1` [Indomethacin, indomethacin, reference compound], the “inhibited adjuvant-injected paw swelling” value [3, 10] is reported as 40%, the “inhibited contralateral paw swelling” value [3, 10] is reported as 69% and the “inhibited contralateral paw swelling” value [4, 11] is reported as 72%. The “inhibited swelling in the adjuvant-injected paws” value [4, 11] was 38%.

— patent publication US20060069123A1, “Substituted dipiperidine CCR2 antagonists” (priority 2004, published 2006)
